In US6569878B1, “Substituted 4-amino-thiazol-2-yl compounds as cyclin-dependent kinase inhibitors” (Agouron Pharmaceuticals Inc., priority 1997, dated 2003):
Where two headings read alike, the source gives them in different places.

Legend:
CDK2/cyclin A = target: T1, CDK2/cyclin A (Homo sapiens, UniProt P24941); assay: Inhibition of CDK2/cyclin A retinoblastoma kinase activity; assay type: biochemical; settings: read-out: Ki CDK 2/A
T1 construct: made in house; host or cells: CDK2: insect cells (baculovirus); cyclin A: E. coli, then limited proteolysis
Experimental: Cyclin-dependent kinase activity was measured by quantifying the enzyme-catalyzed, time-dependent incorporation of radioactive phosphate from [^32P]ATP or [^33P]ATP into a protein substrate. Unless noted otherwise, assays were performed in 96-well plates in a total volume of 50 μL, in the presence of 10 mM HEPES (N-[2-hydroxyethyl]piperazine-N′-[2-ethanesulfonic acid]) (pH 7.4), 10 mM MgCl2, 25 μM adenosine triphosphate (ATP), 1 mg/mL ovalbumin, 5 μg/mL leupeptin, 1 mM dithiothreitol, 10 mM β-glycerophosphate, 0.1 mM sodium vanadate, 1 mM sodium fluoride, 2.5 mM ethylene glycol-bis(β-aminoethyl ether)-N,N,N′N′-tetraacetic acid (EGTA), 2% (v/v) dimethylsulfoxide, and 0.03-0.4 μCi [^32/33P]ATP per reaction. Reactions were initiated with enzyme, incubated at 30° C., and terminated after 20 minutes by the addition of ethylenediaminetetraacetic acid (EDTA) to 250 mM. The phosphorylated substrate was then captured on a nitrocellulose or phosphocellulose membrane using a 96-well filtration manifold, and unincorporated radioactivity was removed by repeated washing with 0.85% phosphoric acid. Radioactivity was quantified by exposing the dried membranes to a phosphorimager.
(§1) Apparent Ki values were measured by assaying enzyme activity in the presence of different inhibitor compound concentrations and subtracting the background radioactivity measured in the absence of enzyme. The kinetic parameters (kcat, Km for ATP) were measured for each enzyme under the usual assay conditions by determining the dependence of initial rates on ATP concentration. Inhibition data were fit to an equation for competitive inhibition using Kaleidagraph (Synergy Software), or were fit to an equation for competitive tight-binding inhibition using the software KineTic (BioKin, Ltd.).
CDK2 was purified using published methodology (Rosenblatt et al., “Purification and Crystallization of Human Cyclin-dependent Kinase 2,” J. Mol. Biol., vol. 230, 1993, pp. 1317-1319) from insect cells that had been infected with a baculovirus expression vector. […] Purified, proteolyzed cyclin A was included in the assay at a three- to five-fold molar excess to CDK2. Alternatively, a complex of CDK2 and proteolyzed cyclin A was prepared and purified by gel filtration. The substrate for this assay was the same Rb substrate fragment used for the CDK4 assays, and the methodology of the CDK2/cyclin A and the CDK4/cyclin D3 assays was essentially the same, except that CDK2 was present at 150 nM or 5 nM. Ki values were measured as described above.

[1] = target: T2, complex of human CDK4 and cyclin D3 (Homo sapiens, UniProt P11802); assay: Inhibition of CDK4/cyclin D retinoblastoma kinase activity (D-type cyclin is D3); assay type: biochemical; settings: superscript a: D-type cyclin is D3; apparent Ki; read-out: Ki CDK 4/D
T2 construct: made in house; host or cells: insect cells, co-infected with baculovirus
T2 sequence (P11802 whole entry): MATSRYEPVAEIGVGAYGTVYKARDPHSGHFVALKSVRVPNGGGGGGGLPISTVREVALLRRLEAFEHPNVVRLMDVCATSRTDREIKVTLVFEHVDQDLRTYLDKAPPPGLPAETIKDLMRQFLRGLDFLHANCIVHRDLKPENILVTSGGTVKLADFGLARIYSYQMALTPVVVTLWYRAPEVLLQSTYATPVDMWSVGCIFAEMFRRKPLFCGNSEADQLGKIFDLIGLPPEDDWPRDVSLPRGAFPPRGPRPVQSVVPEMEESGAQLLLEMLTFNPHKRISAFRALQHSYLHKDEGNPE
T2 sequence (P30281 whole entry partner): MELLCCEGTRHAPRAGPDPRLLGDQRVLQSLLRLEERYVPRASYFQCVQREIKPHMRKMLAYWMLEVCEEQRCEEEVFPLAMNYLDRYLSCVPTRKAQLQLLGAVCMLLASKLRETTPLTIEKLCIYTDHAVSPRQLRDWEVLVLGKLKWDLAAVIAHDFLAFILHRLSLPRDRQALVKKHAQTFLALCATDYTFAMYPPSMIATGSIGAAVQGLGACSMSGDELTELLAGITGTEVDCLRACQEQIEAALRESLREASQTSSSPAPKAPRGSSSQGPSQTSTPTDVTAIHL
Experimental: Cyclin-dependent kinase activity was measured by quantifying the enzyme-catalyzed, time-dependent incorporation of radioactive phosphate from [^32P]ATP or [^33P]ATP into a protein substrate. […] Reactions were initiated with enzyme, incubated at 30° C., and terminated after 20 minutes by the addition of ethylenediaminetetraacetic acid (EDTA) to 250 mM. […] Radioactivity was quantified by exposing the dried membranes to a phosphorimager.
as §1
Phosphorylated Rb substrate was captured by microfiltration on a nitrocellulose membrane and quantified using a phosphorimager as described above. For measurement of tight-binding inhibitors, the enzyme complex concentration was lowered to 5 nM, and the assay duration was extended to 60 minutes, during which the time-dependence of product formation was linear.

Structure (SMILES) | Ki (CDK2/cyclin A; μM) | Ki [1] | Ki (CDK2/cyclin A)
Cc1cccc(-c2ccccc2)c1C(=O)c1sc(Nc2ccc3nc[nH]c3c2)nc1N [C(67), [4-Amino-2-(1H-benzoimidazol-6-ylamino)-thiazol-5-yl]-(3-methyl-biphenyl-2-yl)-methanone] | 13.2 µM | 3170 nM | 
Cc1cccc(Br)c1C(=O)c1sc(Nc2ccc(N3CCOCC3)cc2)nc1N [C(84), [4-Amino-2-(4-morpholin-4-yl-phenylamino)-thiazol-5-yl]-(2-bromo-6-methyl-phenyl)-methanone] |  | 53 nM | 1.04 µM
Cc1cc(C(=O)c2sc(Nc3ccc(N4CCN(C)CC4)cc3)nc2N)c(C)s1 [C(90), {4-Amino-2-[4-(4-methyl-piperazin-1-yl)-phenylamino]-thiazol-5-yl}-(2,5-dimethyl-thiophen-3-yl)-methanone] |  | 27 nM | 0.771 µM
CCOC(=O)c1ccc(C(=O)c2sc(Nc3ccc(S(N)(=O)=O)cc3)nc2N)cc1 [C(34), Ethyl 4-[4-Amino-2-(4-sulfamoyl-phenylamino)-thiazole-5-carbonyl]-benzoate] |  | 140 nM | 0.131 µM
Nc1nc(Nc2ccc(S(N)(=O)=O)cc2)sc1C(=O)c1cc(Cl)sc1Cl [C(92), 4-[4-Amino-5-(2,5-dichloro-thiophene-3-carbonyl)-thiazol-2-ylamino]-benzenesulfonamide] |  | 63 nM | 0.0094 µM
Cc1ccc(C(=O)c2sc(Nc3ccc(-n4ccnc4)cc3)nc2N)c(C)c1 [C(41), [4-Amino-2-(4-imidazol-1-yl-phenylamino)-thiazol-5-yl]-(2,4-dimethyl-phenyl)-methanone] |  | 350 nM | 0.336 µM
Nc1nc(Nc2ccc(C(=O)O)cc2)sc1C(=O)c1c(Cl)cccc1Cl [I(25)] |  | 639 nM | 0.28 µM
Cc1ccsc1C(=O)c1sc(Nc2ccc(-n3ccnc3)cc2)nc1N [C(42), [4-Amino-2-(4-imidazol-1-yl-phenylamino)-thiazol-5-yl]-(3-methyl-thiophen-2-yl)-methanone] |  | 750 nM | 0.207 µM
Nc1nc(Nc2ccc(N3CCOCC3)cc2)sc1C(=O)c1c(Cl)ccc([N+](=O)[O-])c1Cl [C(75), [4-Amino-2-(4-morpholin-4-yl-phenylamino)-thiazol-5-yl]-(2,6-dichloro-3-nitro-phenyl)-methanone] |  | 23 nM | 1.08 µM
CC(C)(C)OC(=O)N1CCN(c2ccc(Nc3nc(N)c(C(=O)c4c(Cl)cccc4Cl)s3)cc2)CC1 [C(105), 4-Amino-2-[4-(1-tert-butoxycarbonyl-piperazine-4-yl)-phenylamino]-thiazol-5-yl-(2,6-dichlorophenyl)-methanone] |  | 60 nM | 1.06 µM
Cc1ccsc1C(=O)c1sc(Nc2ccc(N3CCN(C(=O)OC(C)(C)C)CC3)cc2)nc1N [C(104), 4-Amino-2-[4-(1-tert-butoxycarbonyl-piperazine-4-yl)-phenylamino]-thiazol-5-yl-(3-methyl-thiophen-2-yl)-methanone] |  | 190 nM | 0.73 µM
Cc1cc(C)c(C(=O)c2sc(Nc3ccc4nc[nH]c4c3)nc2N)c(C)c1 [C(57), [4-Amino-2-(1H-benzoimidazol-6-ylamino)-thiazol-5-yl]-(2,4,6-trimethyl-phenyl)-methanone] |  | 30 nM | 0.259 µM
COc1ccc(C(=O)c2sc(Nc3ccc(S(N)(=O)=O)cc3)nc2N)c(OC)c1 [C(33), 4-[4-Amino-5-(2,4-dimethoxy-benzoyl)-thiazol-2-ylamino]-benzenesulfonamide] |  | 57 nM | 0.02 µM
Cc1cc([N+](=O)[O-])sc1C(=O)c1sc(Nc2ccc3nc[nH]c3c2)nc1N [C(78), [4-Amino-2-(1H-benzoimidazol-6-ylamino)-thiazol-5-yl]-(3-methyl-5-nitro-thiophen-2-yl)-methanone] |  | 32 nM | 0.083 µM
Nc1nc(Nc2ccc(-c3ncc[nH]3)cc2)sc1C(=O)c1c(Cl)cc(C(F)(F)F)cc1Cl [C(53), {4-Amino-2-[4-(1H-imidazol-2-yl)-phenylamino]-thiazol-5-yl}-(2,6-dichloro-4-trifluoromethyl-phenyl)-methanone] |  | 85 nM | 0.18 µM
Cc1cncc(C)c1C(=O)c1sc(Nc2ccc(S(N)(=O)=O)cc2)nc1N [C(59), [4-Amino-2-(4-sulfamoyl-phenylamino)-thiazol-5-yl]-(3,5-dimethyl-pyridin-4-yl)-methanone] |  | 100 nM | 0.135 µM
Nc1nc(Nc2ccc(S(N)(=O)=O)cc2)sc1C(=O)c1ccc2c(c1)CCC(=O)N2 [C(51), 4-[4-Amino-5-(2-oxo-1,2,3,4-tetrahydro-quinoline-6-carbonyl)-thiazol-2-ylamino]-benzenesulfonamide] |  | 85 nM | 0.0333 µM
COc1ccc(C(=O)c2sc(Nc3ccc(N(C)C)cc3)nc2N)cc1 [C(3), [4-Amino-2-(4-dimethylamino-phenylamino)-thiazol-5-yl]-(4-methoxy-phenyl)-methanone] |  | 1200 nM | 4.7 µM
Cc1c(C(=O)c2sc(Nc3ccc(S(N)(=O)=O)cc3)nc2N)ncn1C [C(76), 4-[4-Amino-5-(1,5-dimethyl-1H-imidazole-4-carbonyl)-thiazol-2-ylamino]-benzenesulfonamide] |  | 2000 nM | 0.507 µM

Next, values leading:

Ki (CDK2/cyclin A; μM) | Ki [1] | Ki (CDK2/cyclin A) | Structure (SMILES)
 | 72 nM | 1.71 µM | Cc1cccc(C)c1C(=O)c1sc(Nc2ccc(N3CCOCC3)cc2)nc1N [C(62), [4-Amino-2-(4-morpholin-4-yl-phenylamino)-thiazol-5-yl]-(2,6-dimethyl-phenyl)-methanone]
 | 110 nM | 0.595 µM | CN(CC(=O)OC(C)(C)C)c1ccc(Nc2nc(N)c(C(=O)c3c(F)cccc3F)s2)cc1 [C(103), tert-Butyl({4-[4-Amino-5-(2,6-difluoro-benzoyl)-thiazol-2-ylamino]-phenyl}-methyl-amino)-acetate]
 | 120 nM | 1.2 µM | Cc1cccc([N+](=O)[O-])c1C(=O)c1sc(Nc2ccc3nc[nH]c3c2)nc1N [C(61), [4-Amino-2-(1H-benzoimidazol-6-ylamino)-thiazol-5-yl]-(2-methyl-6-nitro-phenyl)-methanone]
 | 244 nM | 1.79 µM | CCOC(=O)CC(C)Nc1nc(N)c(C(=O)c2sccc2C)s1 (racemic) [C(46), Ethyl 3RS-[4-Amino-5-(3-methyl-thiophene-2-carbonyl)-thiazol-2-ylamino]-butyrate]
10.6 µM | 4800 nM |  | Cc1c(C(=O)c2sc(Nc3ccc4nc[nH]c4c3)nc2N)ncn1C [C(74), [4-Amino-2-(1H-benzoimidazol-6-ylamino)-thiazol2-5-yl]-(1,5-dimethyl-1H-imidazol-4-yl)-methanone]
 | 23 nM | 0.178 µM | Nc1ccc(Cl)c(C(=O)c2sc(Nc3ccc4nc[nH]c4c3)nc2N)c1Cl [G, [4-Amino-2-(1H-benzoimidazol-6-ylamino)-thiazol-5-yl]-(3-amino-2,6-dichloro-phenyl)-methanone]
 | 195 nM | 1.02 µM | CCOC(=O)c1ccc(Nc2nc(N)c(C(=O)c3c(Cl)cccc3Cl)s2)cc1 [C(56), Ethyl 4-[4-Amino-5-(2,6-dichloro-benzoyl)-thiazol-2-ylamino]-benzoate]
 | 34 nM | 0.306 µM | Cc1ccc(C)c(C(=O)c2sc(Nc3ccc4nc[nH]c4c3)nc2N)c1C [C(58), [4-Amino-2-(1H-benzoimidazol-6-ylamino)-thiazol-5-yl]-(2,3,6-trimethyl-phenyl)-methanone]
 | 53 nM | 0.574 µM | Cc1cccc(Br)c1C(=O)c1sc(Nc2ccc3nc[nH]c3c2)nc1N [C(66), [4-Amino-2-(1H-benzoimidazol-6-ylamino)-thiazol-5-yl]-(2-bromo-6-methyl-phenyl)-methanone]
 | 13.5 nM | 0.169 µM | Nc1nc(Nc2ccc3nc[nH]c3c2)sc1C(=O)c1sc(Br)cc1Br [C(72), [4-Amino-2-(1H-benzoimidazol-6-ylamino)-thiazol-5-yl]-(3,5-dibromo-thiophen-2-yl)-methanone]
